Laboratory results: US12479852B2, “Compounds, compositions, and methods for protein degradation” (DANA-FARBER CANCER INSTITUTE, INC., priority 2019, dated 2025)

System: synovial sarcoma cell lines
Assay: testing against a panel of synovial sarcoma cell lines (antiproliferation)
Format: cell-based
Conditions: FIG. 1

SMILES: O=C(CCOCCOCCOCCNc1cccc2c1C(=O)N(C1CCC(=O)NC1=O)C2=O)NCCc1ccc(N2C[C@@H]3C[C@H]2CN3/C=C/C(=O)c2ccccc2O)cc1 (stereo partly drawn) [Compound E1, 3-(2-(2-(2-((2-(2,6-dioxopiperidin-3-yl)-1,3-dioxoisoindolin-4-yl)amino)ethoxy)ethoxy)ethoxy)-N-(4-((1S,4S)-5-((E)-3-(2-hydroxyphenyl)-3-oxoprop-1-en-1-yl)-2,5-diazabicyclo[2.2.1]heptan-2-yl)phenethyl)propanamide]
- antiproliferation effect against synovial sarcoma lines: antiproliferation effect
